Experimental data from patent publication US8440695B2 (St Jude Children's Research Hospital, priority 2005, dated 2013).
“Also recorded” adds a separate entry of the source.

Tests used:
[1] = test system: ATM^+/+ apoE^−/− mice; assay: Atherosclerosis by the en face technique in Western diet-fed mice; type: in vivo, mouse; settings: 7 mg/kg/week i.p., 8 weeks Western diet, vs saline
Protocol: Atherosclerosis was measured using the en face or aortic origin technique. For the former, pinned aortas were imaged with a digital camera and analyzed by using an image-processing program. The percentage of involvement of the intimal surface area is reported for the arch (encompassing the surface from the aortic valve to the left subclavian artery), the thoracic aorta (extending to the final intercostal artery), and the abdominal aorta (to the ileal bifurcation). For the aortic origin technique, mean lesion size for each animal was quantified by the degree of lipid staining of cross-sections of aortic tissue as described. Anesthetized mice were exsanguinated, the heart and aortic arch were perfused, then tissues were removed en bloc and frozen immediately in tissue freeze medium. For each sample, 64 sections were made on a cryostat beginning just caudal to the aortic sinus and extending into the proximal aorta at 10 μm intervals. Slides were fixed with 60% isopropanol and stained with Oil Red O. For each heart, lesions in eight sections at 80 μm intervals were quantified using image analysis software calibrated using a hemocytometer grid.
(§5) The mice were then fed the Western-type diet as described.
The quantification of aortic lesions involved cleaning the aortas and pinning them on a wax matrix with the intimal surface facing upward (en face). Images were captured with a digital camera, edited for artifacts, and data were reported as the percent involvement of the arch (encompassing the surface from the aortic valve to the left subclavian artery), thoracic aorta (extending to the last intercostal artery), and abdominal aorta (to the ileal bifurcation). At the time of isolation, hearts were embedded in optical coherence tomography (OCT) media and frozen to permit quantification of lesion formation by staining of serial cryostat-cut sections of the aortic sinus, if necessary.

[2] = test system: db/db mice; assay: Fed blood glucose in db/db mice; type: in vivo, mouse; settings: male db/db mice, vs baseline and saline
Protocol: (§1) Two month old male db/db (Lepr^db; LEPR-deficient mice having excess adiposity) mice and ob/ob (Lep^ob, genetically obese) mice were purchased from Harlan (Indianapolis, Ind.) and the Jackson Laboratory, respectively.
(§2) Blood glucose in male db/db mice were treated with either CHQ or saline. Baseline represents the average fed blood glucose levels of the 12 db/db mice.

[3] = test system: retina; settings: several groups; cited from earlier work
[4] = test system: ob/ob mice; assay: Blood glucose and fasting insulin in ob/ob mice; type: in vivo, mouse
Protocol: as §1, §2

[5] = test system: subjects with the metabolic syndrome; assay: Fasting lipids and lipoproteins in subjects with the metabolic syndrome; type: in vivo, human; settings: for Total Cholesterol / HDL cholesterol / LDL cholesterol / Triglycerides: 3 weeks; for Total Cholesterol: average of two subjects, placebo 206; for HDL cholesterol: placebo 47; for LDL cholesterol: placebo 132; for Triglycerides: placebo 139
[6] = test system: subjects with the metabolic syndrome; assay: Hyperinsulinemic-euglycemic clamp in subjects with the metabolic syndrome; type: in vivo, human
Protocol: (§3) Glucose and insulin tolerance tests are generally performed using D-glucose (1 g/kg) and insulin (0.75 U/kg), which are administered in separate procedures followed by serial measurements of blood glucose. If necessary, an oral glucose tolerance test (OGTT) will be performed the day after completing the clamp. After an overnight fast, an intravenous catheter will be placed, baseline labs will be obtained, 75 g of glucose will be consumed, and blood glucose, insulin, C peptide, and glucagon will be determined every half hour for 2 hours.
Two subjects with the metabolic syndrome have completed the protocol. The mean glucose infusion rate to maintain euglycemia (90 mg/dl) at steady state during the first stage of the clamp (using an insulin infusion rate of 15 mU/m^2/min) for these two subjects was determined.
Clamps are performed with infusion of stable isotope-labeled glucose to allow the determination of both glucose disposal rates and hepatic glucose output during hyperinsulinemic-euglycemic clamps in subjects with the metabolic syndrome. The results are presented as the mean for two subjects.

[7] = Body weight, metabolic rate (indirect calorimetry) and fasting serum lipids in mice; type: in vivo, mouse; settings: ATM^+/+ apoE^−/− mice, 7 mg/kg/week, 4 and 8 weeks Western diet
Protocol: as §5
All of these experiments were performed using ATM^+/+ apoE^−/− littermate mice beginning at the age of 8 weeks.
Serum is generally obtained after a four hour fast and assayed for routine chemistries (glucose, triglycerides, cholesterol, and non-esterified fatty acids) using an automated plate reader connected to a computer, as described by Li et al., Nat.

[8] = test system: ATM^+/+apoE^−/− and ATM^−/−apoE^−/− mice; assay: Intraperitoneal glucose tolerance test in Western diet-fed mice; type: in vivo, mouse
Protocol: For glucose tolerance and insulin tolerance tests, mice were fasted and injected with 10% D-glucose (1 g/kg) or human regular insulin (0.75 units/kg body weight, Eli Lilly and Co., Indianapolis, Ind.) in procedures separated by at least one week. Tail vein blood (5-10 µl) was assayed for glucose at 0, 30, 60, and 120 minutes. Blood glucose was assayed using a glucose meter (Hemocue, Mission Viejo, Calif. or Becton Dickinson, San Jose, Calif.). The area under the glucose and insulin curves (AUC) during the OGTT and ITT were calculated using the formula: 0.25 (fasting value)+0.5 (½ h value)+0.75 (1 h value)+0.5 (2 h value).
The glucose tolerance and insulin tolerance tests were performed on mice that were fasted for 12 hours and then injected with 10% D-glucose (1 g/kg) or human regular insulin (0.75 units/kg body weight, Eli Lilly and Co., Indianapolis, Ind.) in procedures separated by at least one week. Tail vein blood (5-10 μl) was assayed for glucose at 0, 30, 60, and 120 minutes. Blood glucose was assayed using a glucose meter (Hemocue, Mission Viejo, Calif.). The area under the glucose and insulin curves (AUC) during the OGTT and ITT were calculated using the formula: 0.25 (fasting value)+0.5 (½ h value)+0.75 (1 h value)+0.5 (2 h value), as described by Haffner et al., N. Engl.
as §5

[9] = test system: p53; settings: low dose chloroquine, 3.5 mg/kg per injection i.p.
Description: (§4) However, low level activation of ATM as detected with an antibody that recognizes serine phosphorylation at residue 1981, may also be used in the assay.

[10] = test system: lipoprotein lipase (LPL); assay: LPL enzyme activity in peritoneal macrophages from treated mice; type: in vivo, mouse; settings: ATM^+/+ mice treated systemically, vs saline
[11] = molecular target: T1, ATM (Homo sapiens, UniProt Q13315); assay: Activated ATM (Ser1981P-ATM Western blot) in monocytes of treated subjects; type: in vivo; parameters: lysates were immunoprecipitated using a total ATM antibody (D1611); endogenous in cells; host or cells: adherent peripheral blood monocytes from human subjects with metabolic syndrome
Protocol: Anticoagulated blood was added to commercially available tubes containing Histopaque, and mononuclear cells were collected after centrifugation. These cells were subjected to a brief second spin using a discontinuous sucrose gradient to remove platelets (which can interfere with the adherence of monocytes to culture dishes), then the mononuclear cells were placed in tissue culture dishes. Two hours later, lymphocytes were washed away, and adherent monocytes were collected and frozen in appropriate media so that cells from different limbs of the protocol can subsequently be studied in the same assays. […] For activated ATM determinations, lysates were immunoprecipitated using a total ATM antibody (D1611). The immunoprecipitated samples were blotted for activated ATM using a monoclonal antibody recognizing Ser1981P-ATM. The gels included a positive control of 293 cells treated with camptothecin. Total lysates were used to blot activated p53 using a polyclonal antibody to Ser15P-p53 (cell signaling). To confirm the p53 data, total lysates were tested using an ELISA-based p53 DNA binding assay (TransAM p53 activity assay from Active Motif).
Target sequence in this assay (Q13315 whole entry): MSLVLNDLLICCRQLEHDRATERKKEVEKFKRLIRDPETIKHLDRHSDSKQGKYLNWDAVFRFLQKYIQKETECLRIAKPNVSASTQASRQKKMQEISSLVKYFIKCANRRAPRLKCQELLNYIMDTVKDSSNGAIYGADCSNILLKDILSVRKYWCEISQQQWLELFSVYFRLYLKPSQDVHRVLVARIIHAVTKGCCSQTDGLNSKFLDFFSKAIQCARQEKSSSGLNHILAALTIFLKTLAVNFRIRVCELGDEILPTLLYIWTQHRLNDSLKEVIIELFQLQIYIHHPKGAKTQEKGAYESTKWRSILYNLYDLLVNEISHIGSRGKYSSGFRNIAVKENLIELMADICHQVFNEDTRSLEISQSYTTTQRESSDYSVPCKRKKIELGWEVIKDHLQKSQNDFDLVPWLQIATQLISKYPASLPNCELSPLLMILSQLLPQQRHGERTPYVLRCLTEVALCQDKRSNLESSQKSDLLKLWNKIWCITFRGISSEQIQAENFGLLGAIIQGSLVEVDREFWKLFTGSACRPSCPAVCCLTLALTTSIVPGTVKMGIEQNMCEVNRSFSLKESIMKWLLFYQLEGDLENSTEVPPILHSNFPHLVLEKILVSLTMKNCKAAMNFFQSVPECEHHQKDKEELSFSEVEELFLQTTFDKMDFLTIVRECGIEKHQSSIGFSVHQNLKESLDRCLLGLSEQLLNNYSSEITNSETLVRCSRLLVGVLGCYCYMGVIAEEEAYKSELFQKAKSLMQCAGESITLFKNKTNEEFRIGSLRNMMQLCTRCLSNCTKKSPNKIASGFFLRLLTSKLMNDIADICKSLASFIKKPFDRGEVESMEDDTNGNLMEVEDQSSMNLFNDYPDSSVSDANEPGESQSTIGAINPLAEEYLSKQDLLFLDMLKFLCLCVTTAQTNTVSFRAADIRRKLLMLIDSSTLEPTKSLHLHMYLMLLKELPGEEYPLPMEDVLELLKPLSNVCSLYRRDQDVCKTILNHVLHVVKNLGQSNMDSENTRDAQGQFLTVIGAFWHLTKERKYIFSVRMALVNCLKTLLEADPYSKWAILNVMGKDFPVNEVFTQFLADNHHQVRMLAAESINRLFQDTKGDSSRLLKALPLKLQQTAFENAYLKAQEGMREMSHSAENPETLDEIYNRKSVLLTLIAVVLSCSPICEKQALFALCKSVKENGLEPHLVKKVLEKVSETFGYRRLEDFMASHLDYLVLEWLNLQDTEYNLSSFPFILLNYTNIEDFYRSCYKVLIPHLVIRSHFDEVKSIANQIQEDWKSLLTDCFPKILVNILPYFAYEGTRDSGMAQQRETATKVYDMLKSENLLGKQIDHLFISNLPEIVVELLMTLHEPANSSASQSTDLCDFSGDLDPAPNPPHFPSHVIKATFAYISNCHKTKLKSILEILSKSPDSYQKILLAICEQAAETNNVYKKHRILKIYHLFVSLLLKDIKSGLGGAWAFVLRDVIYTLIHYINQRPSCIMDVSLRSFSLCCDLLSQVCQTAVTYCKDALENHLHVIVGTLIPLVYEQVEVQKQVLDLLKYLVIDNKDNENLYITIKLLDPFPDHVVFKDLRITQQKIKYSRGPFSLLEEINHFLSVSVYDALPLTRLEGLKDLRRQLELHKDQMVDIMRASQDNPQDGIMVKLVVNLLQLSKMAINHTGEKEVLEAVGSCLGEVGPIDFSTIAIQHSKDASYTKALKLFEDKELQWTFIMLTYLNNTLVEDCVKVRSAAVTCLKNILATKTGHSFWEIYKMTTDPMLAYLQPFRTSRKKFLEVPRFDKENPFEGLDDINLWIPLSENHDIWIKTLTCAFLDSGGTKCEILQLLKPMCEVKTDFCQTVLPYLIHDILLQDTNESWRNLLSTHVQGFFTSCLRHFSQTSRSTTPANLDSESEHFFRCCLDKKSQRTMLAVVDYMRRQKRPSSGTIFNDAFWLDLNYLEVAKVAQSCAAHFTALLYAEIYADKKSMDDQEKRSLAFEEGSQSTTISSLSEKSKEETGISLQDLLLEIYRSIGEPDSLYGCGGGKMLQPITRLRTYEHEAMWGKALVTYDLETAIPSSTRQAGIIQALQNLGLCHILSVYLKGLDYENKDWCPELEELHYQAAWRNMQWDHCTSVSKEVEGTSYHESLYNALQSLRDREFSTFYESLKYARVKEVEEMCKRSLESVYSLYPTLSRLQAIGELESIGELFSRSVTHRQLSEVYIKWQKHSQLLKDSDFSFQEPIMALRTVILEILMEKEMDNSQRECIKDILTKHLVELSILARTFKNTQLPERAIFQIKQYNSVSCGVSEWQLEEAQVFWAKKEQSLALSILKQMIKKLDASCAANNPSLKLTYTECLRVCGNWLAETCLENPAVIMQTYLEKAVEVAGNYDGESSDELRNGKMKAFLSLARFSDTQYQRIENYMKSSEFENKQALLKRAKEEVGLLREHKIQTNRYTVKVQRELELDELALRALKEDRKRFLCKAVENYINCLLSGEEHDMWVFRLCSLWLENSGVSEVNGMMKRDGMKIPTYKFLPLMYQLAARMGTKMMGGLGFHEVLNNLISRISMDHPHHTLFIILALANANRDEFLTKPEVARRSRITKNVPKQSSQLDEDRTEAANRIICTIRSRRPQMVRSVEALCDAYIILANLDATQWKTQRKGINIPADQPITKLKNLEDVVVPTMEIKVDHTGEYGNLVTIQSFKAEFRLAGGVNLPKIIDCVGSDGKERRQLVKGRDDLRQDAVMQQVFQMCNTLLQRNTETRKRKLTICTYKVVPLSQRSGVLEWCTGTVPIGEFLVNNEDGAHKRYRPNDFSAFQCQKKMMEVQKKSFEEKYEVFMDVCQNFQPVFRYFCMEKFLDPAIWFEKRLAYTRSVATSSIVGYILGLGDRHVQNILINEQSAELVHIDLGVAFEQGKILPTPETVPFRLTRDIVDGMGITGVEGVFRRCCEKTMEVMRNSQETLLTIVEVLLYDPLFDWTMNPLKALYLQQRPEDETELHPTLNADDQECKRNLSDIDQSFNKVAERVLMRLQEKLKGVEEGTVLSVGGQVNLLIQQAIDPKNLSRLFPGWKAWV

[12] = test system: ApoE-null model mice lacking a single allele of ATM; assay: ApoE-null mice lacking a single allele of ATM on high fat diet, chloroquine treatment; type: in vivo, mouse; settings: 7 mg/kg per week
[13] = test system: ATM^+/+ apoE^−/− and ATM^−/− apoE^−/− mice; assay: Tail-cuff systolic and diastolic blood pressure in Western diet-fed mice; type: in vivo, mouse; settings: 7 mg/kg/week, 8 weeks Western diet, vs saline
Protocol: Systolic blood pressure (SBP) and diastolic blood pressure (DBP) were measured after 8 weeks of Western diet feeding in ATM^+/+, ATM^+/−, and ATM^−/− mice. […] A plethysmography device (such as those supplied by Kent Scientific, Litchfield, Conn.) was used for tail cuff blood pressure determinations in acclimated, warmed mice performed by a technician blinded to treatment status, according to the manufacturer's instructions. Results were reported as the mean of 5-8 measurements on each day of 3 consecutive days.
Systolic and diastolic blood pressures were measured over several days in conscious mice using a tail-cuff system (Kent Scientific, Litchfield, Conn.) as described (Bernal-Mizrachi et al., 2003; Nat. Med. 9:1069-1075). Animals were habituated to the blood pressure apparatus for several days before data were collected. Five to eight measurements were recorded for each mouse at each of three daily sessions. Results are presented as the mean of those measurements on consecutive days.

[14] = test system: patients with type 2 diabetes; settings: cited from earlier work
[15] = molecular target: T1, ATM; assay: ATM activation in cultured cells; type: cell-based; parameters: endogenous in cells; settings: low concentrations
Description: as §4
Target sequence in this assay (Q13315 whole entry, species assumed): as the sequence (Q13315 whole entry) above

[16] = test system: subjects with the metabolic syndrome; assay: Ambulatory blood pressure, glucose tolerance test and body weight in subjects with the metabolic syndrome; type: in vivo, human; settings: two subjects
Protocol: as §3

[17] = test system: JNK; assay: Phospho-JNK ELISA in cultured aortic smooth muscle cells after antisense transfection; type: cell-based, mouse; settings: aortic smooth muscle cells from ATM^+/+apoE^−/− mice, 1.4 μmol/L, 72 hours
Protocol: When cultured aortic smooth muscle cells were treated with a morpholino antisense oligonucleotide to ATM, JNK activity was increased, providing direct evidence that interfering with ATM expression induces JNK activity, a mediator of insulin resistance. Analysis of phospho-JNK in vascular smooth muscle cells cultured from ATM^+/+apoE^−/− mice. Primary aortic smooth muscle cells were transfected with an anti-ATM oligonucleotide, or a control oligonucleotide or the vehicle ethoxylated polyethylenimine solution only. Cells were assayed by ELISA for phospho-JNK and total JNK as measured in U/ml/well of a 96-well plate. […] Increased expression of phospho-JNK was detected in tissues involved in systemic insulin action in all three ATM genotypes in apoE^−/− mice, as determined by analysis of Western blots for fat, skeletal muscle and liver. Comparisons were made between ATM-deficient and ATM wild-type animals.
Most of the mass of the aorta is composed of smooth muscle cells. Smooth muscle cells were cultured from the aortas of apoE^−/− mice by the explant technique as described by Weng et al., Proc. Natl. Acad. Sci. USA, 2003, 100:6730-6735. […] Successful transfection was confirmed by fluorescence microscopy and phospho-JNK and total JNK were assayed 72 hours later using a cell-based ELISA kit. […]

[18] = 80 mg/day for three weeks, two subjects
[19] = 80 mg/day, first stage of clamp, mean of two subjects
[20] = 1000 mg/day for three days (Powrie et al.)

CCN(CC)CCCC(C)Nc1ccnc2cc(Cl)ccc12 (stereo not shown) [chloroquine, N4-(7-Chloro-4-quinolinyl)-N1,N1-diethyl-1,4-pentanediamine]
decrease of atherosclerosis (lesion area) at the abdominal aorta [1]: 25% | decrease of atherosclerosis (lesion area) at the arch [1]: 37% | decrease of atherosclerosis (lesion area) at the thoracic aorta [1]: 25% | fed glucose levels [2]: lowered | cumulative doses with no effects (retinopathy) [3]: 300 grams | fasting insulin levels ([4]; 7 mg/kg/week, saline 16,810±1,120, P<0.05): 13,360±1996 pg/ml | fasting glucose levels ([4]; 3 weeks after initiation, vs baseline and saline): lowered | fed glucose levels ([4]; vs baseline and saline): lowered | decrease in LDL cholesterol [5, 18]: 25% | decrease in total cholesterol [5, 18]: 17% | decrease in triglycerides [5, 18]: 10% | Total Cholesterol ([5]; chloroquine 80 mg/day): 172 mg/dL | HDL cholesterol ([5]; chloroquine 80 mg/day): 47 mg/dL | LDL cholesterol ([5]; chloroquine 80 mg/day): 100 mg/dL | Triglycerides ([5]; chloroquine 80 mg/day): 125 mg/dL | Total Cholesterol ([5]; chloroquine 250 mg/day): 169 mg/dL | HDL cholesterol ([5]; chloroquine 250 mg/day): 51 mg/dL | LDL cholesterol ([5]; chloroquine 250 mg/day): 99 mg/dL | Triglycerides ([5]; chloroquine 250 mg/day): 129 mg/dL | increase in glucose infusion rate compared to placebo ([6]; 80 mg dose, second stage of clamp (insulin 40 mU/m^2/min)): 23% | increase in glucose infusion rate to maintain the blood glucose ([6]; 80 mg per day oral, 3 weeks, first stage of clamp (insulin 15 mU/m^2/min), mean of two subjects): 63% | decrease of hepatic glucose production [6, 19]: 58% | increase of glucose disposal in peripheral tissues [6, 19]: 62% | glucose infusion rate effect ([6]; 250 mg dose, clamp first and second stage): blunted effect | serum lipids (fasting cholesterol, triglycerides, NEFA) [7]: no effect | glucose tolerance ([8]; ATM^+/+ apoE^−/− mice, 7 mg/kg/week, 8 weeks Western diet, vs saline): improved | glucose tolerance ([8]; ATM^−/−apoE^−/− mice, Western diet): not | p53 activation in fat and muscle as well as liver, aorta and cultured macrophages [9]: p53 activation | LPL enzyme activity in peritoneal macrophages [10]: decreased | ATM activation ([11]; 80 mg/day dose): greater activation | ATM activation ([11]; 250 mg/day dose): blunted effect | activation of ATM in monocytes ([11]; three weeks of 80 mg/day or 250 mg/day, none with placebo): activation; also recorded: activated | atherosclerosis [12]: significantly reduced | central adiposity [12]: significantly reduced | glucose intolerance [12]: significantly reduced | hypertension [12]: significantly reduced | lowering of systolic pressure [13]: 9 mm Hg | endogenous glucose production [14, 20]: without affecting | insulin resistance in peripheral tissues [14, 20]: modestly decreased | increase in the glucose infusion rate required to maintain euglycemia ([14]; 1000 mg/day for three days, patients with type 2 diabetes): 13% | ATM activation in cultured cells [15]: activates | ambulatory blood pressures (systolic, diastolic, mean arterial) [16]: did not appear to be affected

anti-ATM: lissamine-tagged Morpholino antisense oligonucleotide against mouse ATM, 5′-GTGCTAGACTCATGGTTTAAGATTT-3′ (SEQ ID NO:6) (all phosphorodiamidate morpholino (PMO); lissamine tag, position not given here)
JNK activity (phospho-JNK normalized to total JNK) [17]: increased
